“And” between values parts separate entries of the source, which are not always exact repeats. Equal values may be shown once. Read-outs that look alike come from different tables or passages of the source. Marks after values point to notes of the source that are not given here.
Assay: Phase 1 crossover PK study: oral solution fed/fasted vs IV infusion in healthy subjects
Type: in vivo, human
Conditions: for bioavailability: dose increasing from 180 mg to 320 mg
Method: This pharmacokinetic (PK) study in healthy subjects was conducted to characterize and compare the PK parameters in plasma following a single intravenous (IV) dose of Elraglusib Injection, Elraglusib Oral Solution after fasting, and Elraglusib Oral Solution after a high-fat meal (fed). The study was intended to assess the potential feasibility of an oral formulation of elraglusib based on systemic exposure being within the biologically active range. In clinical studies conducted to date, elraglusib Injection (10 mg/mL) is administered IV once or twice per week over multiple hours, which requires a significant amount of time and resources by both patients and site personnel. […] See Example 3 above.
The route of administration is by IV infusion after diluting elraglusib for injection with 0.9% Sodium Chloride Injection.
It is a clear, red solution, free of visible particulate matter and a low bioburden liquid dosage form that is self-preserving against microbial growth.
Subjects received a single 3.3 mg/kg dose of each of the following in a randomly assigned order separated by a 2-week period.
During the study, the high fat meal was administered over a period of under 30 minutes (in almost all cases, 28 minutes).
Elraglusib Injection (10 mg/mL) administered as an IV infusion over 60 minutes (concentration in mg/mL and infusion rate in mL/kg/hour could vary depending on the subject's body weight).
PK parameters including AUC, Cmax, Tmax, and t1/2 were analyzed by standard non-compartmental analysis (NCA) methods following each of the elraglusib doses. Log transformed Cmax and AUC parameters in subjects having adequate PK data following at least 1 of the oral and IV doses were used to assess the relative bioavailability of the oral dose (fed and/or fasted) compared to the IV dose.
All efforts were made to obtain the PK samples at the scheduled nominal times relative to dosing. PK samples were assayed using validated analytical methods.

[1] = oral 3.3 mg/kg fasted state, human plasma
[2] = oral 3.3 mg/kg fed state, human plasma
[3] = oral fasted vs IV infusion, 3.3 mg/kg
[4] = oral fed vs IV infusion, 3.3 mg/kg
[5] = oral fed vs oral fasted, 3.3 mg/kg

A Tmax (human, plasma, po, 3.3 mg/kg, oral 3.3 mg/kg fasted state, human plasma, read-out: Tmax Median) of 2 h, a half-life (human, plasma, po, 3.3 mg/kg, oral 3.3 mg/kg fasted state, human plasma, read-out: t1/2 Arithmetic Mean (converted)) of 16.4 h and a half-life (human, plasma, po, 3.3 mg/kg, oral 3.3 mg/kg fasted state, human plasma, read-out: t1/2 GMean (converted)) of 15.6 h were found for Cn1cc(C2=C(c3coc4ccc(F)cc34)C(=O)NC2=O)c2cc3c(cc21)OCO3 [elraglusib, 3-(5-fluorobenzofuran-3-yl)-4-(5-methyl-5H-[1,3]dioxolo[4,5-f]indol-7-yl)-1H-pyrrole-2,5-dione] in this work. For the same molecule, the half-life (human, plasma, po, 3.3 mg/kg, oral 3.3 mg/kg fasted state, human plasma, read-out: t1/2 Median (converted)) was 18.2 h, the AUC (human, plasma, po, 3.3 mg/kg, oral 3.3 mg/kg fed state, human plasma, read-out: AUC24 Arithmetic Mean) was 3930 ng·h/mL and the AUC (human, plasma, po, 3.3 mg/kg, oral 3.3 mg/kg fed state, human plasma, read-out: AUC24 GMean) was 3420 ng·h/mL. For the same molecule, the AUC (human, plasma, po, 3.3 mg/kg, oral 3.3 mg/kg fed state, human plasma, read-out: AUC24 Median) was 3990 ng·h/mL, the AUC (human, plasma, po, 3.3 mg/kg, oral 3.3 mg/kg fed state, human plasma, read-out: AUC48 Arithmetic Mean) was 4550 ng·h/mL and the AUC (human, plasma, po, 3.3 mg/kg, oral 3.3 mg/kg fed state, human plasma, read-out: AUC48 GMean) was 3980 ng·h/mL. The AUC (human, plasma, po, 3.3 mg/kg, oral 3.3 mg/kg fed state, human plasma, read-out: AUC48 Median) was 4440 ng·h/mL, the AUC (human, plasma, po, 3.3 mg/kg, oral 3.3 mg/kg fed state, human plasma, read-out: AUC72 Arithmetic Mean) was 4780 ng·h/mL and the AUC (human, plasma, po, 3.3 mg/kg, oral 3.3 mg/kg fed state, human plasma, read-out: AUC72 GMean) was 4160 ng·h/mL. For the same molecule, the AUC (human, plasma, po, 3.3 mg/kg, oral 3.3 mg/kg fed state, human plasma, read-out: AUC72 Median) was 4600 ng·h/mL, the AUC (human, plasma, po, 3.3 mg/kg, oral 3.3 mg/kg fed state, human plasma, read-out: AUC96 Arithmetic Mean) was 4890 ng·h/mL and the AUC (human, plasma, po, 3.3 mg/kg, oral 3.3 mg/kg fed state, human plasma, read-out: AUC96 GMean) was 4250 ng·h/mL. The AUC (human, plasma, po, 3.3 mg/kg, oral 3.3 mg/kg fed state, human plasma, read-out: AUC96 Median) was 4730 ng·h/mL, the AUC(0-t) (human, plasma, po, 3.3 mg/kg, oral 3.3 mg/kg fed state, human plasma, read-out: AUClast Arithmetic Mean) was 4890 ng·h/mL and the AUC(0-t) (human, plasma, po, 3.3 mg/kg, oral 3.3 mg/kg fed state, human plasma, read-out: AUClast GMean) was 4250 ng·h/mL. It also gave an AUC(0-t) (human, plasma, po, 3.3 mg/kg, oral 3.3 mg/kg fed state, human plasma, read-out: AUClast Median) of 4730 ng·h/mL, an AUC(0-inf) (human, plasma, po, 3.3 mg/kg, oral 3.3 mg/kg fed state, human plasma, read-out: AUC∞ Arithmetic Mean) of 5000 ng·h/mL and an AUC(0-inf) (human, plasma, po, 3.3 mg/kg, oral 3.3 mg/kg fed state, human plasma, read-out: AUC∞ GMean) of 4330 ng·h/mL. The AUC(0-inf) (human, plasma, po, 3.3 mg/kg, oral 3.3 mg/kg fed state, human plasma, read-out: AUC∞ Median) was 5020 ng·h/mL, the CL/F (human, plasma, po, 3.3 mg/kg, oral 3.3 mg/kg fed state, human plasma, read-out: CL/F Arithmetic Mean (converted)) was 15.1 mL/min/kg and the CL/F (human, plasma, po, 3.3 mg/kg, oral 3.3 mg/kg fed state, human plasma, read-out: CL/F GMean (converted)) was 12.7 mL/min/kg. The CL/F (human, plasma, po, 3.3 mg/kg, oral 3.3 mg/kg fed state, human plasma, read-out: CL/F Median (converted)) was 11 mL/min/kg, the Cmax (human, plasma, po, 3.3 mg/kg, oral 3.3 mg/kg fed state, human plasma, read-out: Cmax Arithmetic Mean) was 592 ng/mL and the Cmax (human, plasma, po, 3.3 mg/kg, oral 3.3 mg/kg fed state, human plasma, read-out: Cmax GMean) was 474 ng/mL. The Cmax (human, plasma, po, 3.3 mg/kg, oral 3.3 mg/kg fed state, human plasma, read-out: Cmax Median) was 507 ng/mL, the Tmax (human, plasma, po, 3.3 mg/kg, oral 3.3 mg/kg fed state, human plasma, read-out: Tmax Arithmetic Mean) was 5.34 h and the Tmax (human, plasma, po, 3.3 mg/kg, oral 3.3 mg/kg fed state, human plasma, read-out: Tmax GMean) was 5.02 h. The Tmax (human, plasma, po, 3.3 mg/kg, oral 3.3 mg/kg fed state, human plasma, read-out: Tmax Median) was 5 h, the Vd/F (human, plasma, po, 3.3 mg/kg, oral 3.3 mg/kg fed state, human plasma, read-out: Vz/F GMean) was 20.9 L/kg and 1530 L and the half-life (human, plasma, po, 3.3 mg/kg, oral 3.3 mg/kg fed state, human plasma, read-out: t1/2 Arithmetic Mean (converted)) was 20.8 h. For the same molecule, the half-life (human, plasma, po, 3.3 mg/kg, oral 3.3 mg/kg fed state, human plasma, read-out: t1/2 GMean (converted)) was 19 h, the half-life (human, plasma, po, 3.3 mg/kg, oral 3.3 mg/kg fed state, human plasma, read-out: t1/2 Median (converted)) was 21.2 h and the AUC(0-t) (human, plasma, po, 3.3 mg/kg, oral 3.3 mg/kg, Fasted, read-out: AUClast LS Means) was 1460 ng·h/mL. For the same molecule, the AUC(0-inf) (human, plasma, po, 3.3 mg/kg, oral 3.3 mg/kg, Fasted, read-out: AUC∞ LS Means) was 1480 ng·h/mL, the Cmax (human, plasma, po, 3.3 mg/kg, oral 3.3 mg/kg, Fasted, read-out: Cmax LS Means) was 133 ng/mL and the AUC(0-t) (human, plasma, po, 3.3 mg/kg, oral 3.3 mg/kg, Fed, read-out: AUClast LS Means) was 4250 ng·h/mL. For the same molecule, the AUC(0-inf) (human, plasma, po, 3.3 mg/kg, oral 3.3 mg/kg, Fed, read-out: AUC∞ LS Means) was 4330 ng·h/mL, the Cmax (human, plasma, po, 3.3 mg/kg, oral 3.3 mg/kg, Fed, read-out: Cmax LS Means) was 474 ng/mL and the bioavailability (human, plasma, po, human, fasting, read-out: oral bioavailability, FAUC∞ based regression) was 14 to 24%. For the same molecule, the bioavailability (human, plasma, po, human, fasting, read-out: oral bioavailability, FCmax based regression) was 4 to 16%, the bioavailability (human, plasma, po, human, fed state, read-out: oral bioavailability, FAUC∞ based regression) was 41 to 71% and the bioavailability (human, plasma, po, human, fed state, read-out: oral bioavailability, FCmax based regression) was 16 to 52%. For the same molecule, the “% extrap Arithmetic Mean” value [1] was 1.518%, the “% extrap GMean” value [1] was 1.219% and the “% extrap Median” value [1] was 1.45%. The “AUC∞/Dose Arithmetic Mean” value [1] was 7.224 ng·h/mL/mg, the “AUC∞/Dose GMean” value [1] was 6.128 ng·h/mL/mg and the “AUC∞/Dose Median” value [1] was 5.77 ng·h/mL/mg. The “Clast Arithmetic Mean” value [1] was 1.158 ng/mL, the “Clast GMean” value [1] was 0.8024 ng/mL and the “Clast Median” value [1] was 0.719 ng/mL. The “Cmax/Dose Arithmetic Mean” value [1] was 0.6705 ng/mL/mg, the “Cmax/Dose GMean” value [1] was 0.5482 ng/mL/mg and the “Cmax/Dose Median” value [1] was 0.622 ng/mL/mg. The “R^2 Arithmetic Mean” value [1] was 0.9926 #, the “R^2 GMean” value [1] was 0.9925 # and the “R^2 Median” value [1] was 0.9962 #. The “λZ Arithmetic Mean” value [1] was 0.04754 h⁻¹, the “λZ GMean” value [1] was 0.04443 h⁻¹ and the “λZ Median” value [1] was 0.0381 h⁻¹. For the same molecule, the “% extrap Arithmetic Mean” value [2] was 1.865%, the “% extrap GMean” value [2] was 1.301% and the “% extrap Median” value [2] was 1.73%. The “AUC∞/Dose Arithmetic Mean” value [2] was 20.18 ng·h/mL/mg, the “AUC∞/Dose GMean” value [2] was 17.90 ng·h/mL/mg and the “AUC∞/Dose Median” value [2] was 19.2 ng·h/mL/mg. For the same molecule, the “Clast Arithmetic Mean” value [2] was 3.055 ng/mL, the “Clast GMean” value [2] was 2.053 ng/mL and the “Clast Median” value [2] was 2.03 ng/mL. The “Cmax/Dose Arithmetic Mean” value [2] was 2.340 ng/mL/mg, the “Cmax/Dose GMean” value [2] was 1.958 ng/mL/mg and the “Cmax/Dose Median” value [2] was 2.11 ng/mL/mg. The “R^2 Arithmetic Mean” value [2] was 0.9928 #, the “R^2 GMean” value [2] was 0.9928 # and the “R^2 Median” value [2] was 0.9963 #. For the same molecule, the “λZ Arithmetic Mean” value [2] was 0.04026 h⁻¹, the “λZ GMean” value [2] was 0.03648 h⁻¹ and the “λZ Median” value [2] was 0.0327 h⁻¹. For the same molecule, the “Relative bioavailability, Ratio (%) Fasted/IV, AUClast” value [3] was 17.11%, the “Relative bioavailability, Ratio (%) Fasted/IV, AUC∞” value [3] was 17.15% and the “Relative bioavailability, Ratio (%) Fasted/IV, Cmax” value [3] was 7.62%. For the same molecule, the “Relative bioavailability, Ratio (%) Fed/IV, AUClast” value [4] was 50.75%, the “Relative bioavailability, Ratio (%) Fed/IV, AUC∞” value [4] was 51.06% and the “Relative bioavailability, Ratio (%) Fed/IV, Cmax” value [4] was 27.24%. For the same molecule, the “Relative bioavailability, Ratio (%) Fed/Fasted, AUClast” value [5] was 291.00%, the “Relative bioavailability, Ratio (%) Fed/Fasted, AUC∞” value [5] was 292.05% and the “Relative bioavailability, Ratio (%) Fed/Fasted, Cmax” value [5] was 357.10%. It also gave a concentration at 96 h (plasma, other: oral solution (fed and fasted) and IV infusion, 3.3 mg/kg, human, individual subjects, across treatments, read-out: quantifiable plasma concentrations at 96 hours post-dose) of 0.273 to 7.18 ng/mL.

From US20250325517A1, “ORAL DOSAGE FORMS OF ELRAGLUSIB” (Actuate Therapeutics, Inc., priority 2022, published 2025)
